pIC50: −log10 of the molar value.
Legend:
Format in all cases: in vitro ADME
[1] = Metabolic stability in liver microsome (rat); details: rat liver microsome 0.5 mg/mL, compound 1 μM; for half-life at 1 μM: liver microsomes
Method: (§1) Test Example 5. Assay of Metabolic Stability in Liver Microsome
(§2) The objective of the experiment is to determine the stability of the compounds of the Examples in liver microsome of mouse, rat, dog and human.
(§3) Formulation of the working solution of the compound: The stock solution of the compound was added to phosphate buffer, and the final concentration was 20 μM.
(§4) Liver microsome was diluted with 100 mM phosphate buffer to obtain a final concentration of 0.625 mg/mL.
(§5) NADPH (reduced nicotinamide adenine dinucleotide phosphate) and UDPGA (uridine diphosphate glucuronic acid) were weighed respectively, followed by addition of 100 mM phosphate buffer. The final concentrations were 20 mM.
(§6) 1 mg of Alamethicin was weighed, to which 200 μL of DMSO was added to obtain a 5 mg/mL solution. The solution was diluted with phosphate buffer to obtain a final concentration of 50 μg/mL.
(§7) 2.5 Formulation of the reaction stop solution Stop solution: Cold acetonitrile containing 100 ng/mL labetalol hydrochloride and 400 ng/mL tolbutamide as internal standards.
(§8) 400 μL of the prepared liver microsome, 25 μL of the working solution of the compound and 25 μL of Alamethicin were added to a 96-well plate successively, which was then pre-incubated at 37° C. for 10 min. 50 μL of the prepared NADPH/UDPGA was added to initiate the reaction, and the plate was incubated at 37° C. The total volume of the reaction system was 500 μL. The final contents of the components were as follows: […]

[2] = Metabolic stability in liver microsome (mouse); details: mouse liver microsome 0.5 mg/mL, compound 1 μM; for half-life at 1 μM: liver microsomes, NADPH/UDPGA
Method: as §1, §2, §3, §4, §5, §6, §7, §8

[3] = Plasma protein binding rate (rat); details: 37° C. 6 h
Method: (§9) Test Example 6. Assay of Plasma Protein Binding Rate
(§10) The objective of the experiment is to determine the plasma protein binding of the compounds of the Examples in plasma.
(§11) The compound of the Example was formulated into 1 mM solution A with DMSO;
(§12) The solution A was added to the plasma solution to obtain 5 μM solution B;
(§13) 1) 200 μL of solution B was added to the inside of the membrane;
(§14) 2) […] of PBS was added to the outside of the membrane;
(§15) 3) Incubation in a water bath at 37° C. for 6 h;
(§16) 4) The sample was diluted and analyzed by mass spectrometry.

[4] = Plasma protein binding rate (mouse); details: 37° C. 6 h
Method: as §9, §10, §11, §12, §13, §14, §15, §16

[5] = target: T1, CYP450 enzyme isoform 2D6 (Homo sapiens, UniProt P10635); test: CYP enzyme single-point inhibition assay, 2D6; details: human liver microsome, single-point method
T1 construct: single-point method using human liver microsome incubation system; from tissue; host or cells: human liver microsomes
T1 sequence (P10635 whole entry, canonical isoform): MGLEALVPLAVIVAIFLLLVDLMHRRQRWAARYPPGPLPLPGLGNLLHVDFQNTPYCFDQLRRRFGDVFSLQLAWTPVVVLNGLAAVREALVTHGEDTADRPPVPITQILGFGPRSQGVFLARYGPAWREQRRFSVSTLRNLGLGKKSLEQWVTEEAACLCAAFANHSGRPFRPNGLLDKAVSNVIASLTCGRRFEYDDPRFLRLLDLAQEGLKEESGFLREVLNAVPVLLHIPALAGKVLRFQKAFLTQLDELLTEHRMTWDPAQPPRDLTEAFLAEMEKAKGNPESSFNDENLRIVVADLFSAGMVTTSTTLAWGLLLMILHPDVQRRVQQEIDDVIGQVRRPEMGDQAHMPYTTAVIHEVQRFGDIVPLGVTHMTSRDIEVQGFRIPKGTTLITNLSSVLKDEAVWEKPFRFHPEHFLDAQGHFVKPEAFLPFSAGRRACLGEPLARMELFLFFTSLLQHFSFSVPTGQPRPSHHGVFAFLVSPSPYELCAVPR
Method: Test Example 7. CYP Enzyme Single-Point Inhibition Assay
The inhibition of the compounds on CYP450 enzyme isoformwas rapidly predicted by single-point method using human liver microsome incubation system.
2.5 mM NADPH: 4.165 mg of NADPH (reduced nicotinamide adenine dinucleotide phosphate) was weighed, followed by addition of 100 mM phosphate buffer to 2 mL. 0.25 mg/mL microsome solution: 4 mL of 100 mM phosphate buffer was added to 50 μL of 20 mg/mL microsome solution and mixed well.
The test compound of the Example was weighed, diluted to 10 mM with DMSO and then to 100 μM with 100 mM phosphate buffer.
1. 40 μL of liver microsome, 10 μL of substrate and 10 μL of the test compound were added to a 96-well plate and pre-incubated for 3 min.
2. 40 μL of NADPH was added.
3. 300 μL of acetonitrile stop solution containing internal standard was added at 20 min.
4. The sample was centrifuged and injected.

Structure (SMILES) | half-life at 1 μM ([1]; NADPH/UDPGA) | Remaining (%, 60 min) [1] | half-life at 1 μM [2] | Remaining (%, 60 min) [2] | fraction unbound at 6 h, 5 μM [3] | fraction unbound at 6 h, 5 μM [4] | pIC50 [5] | t1/2 ([1]; NADPH/UDPGA)
CCc1cc2n(CC(=O)Nc3ccc(F)cn3)c(=O)c3ccc(C(F)(F)F)nc3n2n1 [Example 34, 2-(2-Ethyl-5-oxo-8-(trifluoromethyl)pyrazolo[1,5-a]pyrido[3,2-e]pyrimidin-4(5H)-yl)-N-(5-fluoropyridin-2-yl)acetamide] | 28.9 h | 104.4% | 3.11 h | 81.3% | 0.044 | 0.043 | < 4.00 | 
O=C(Cn1c(=O)c2ccc(C(F)(F)F)nc2n2nc(Br)cc12)Nc1ccc(F)cn1 [Example 61-A, 2-(2-bromo-5-oxo-8-(trifluoromethyl)pyrazolo[1,5-a]pyrido[3,2-e]pyrimidin-4(5H)-yl)-N-(5-fluoropyridin-2-yl)acetamide] | 15.7 h | 102.3% | 6.82 h | 92.5% | 0.027 | 0.044 | < 4.00 | 
N#Cc1cc2n(CC(=O)Nc3ccc(F)cn3)c(=O)c3ccc(C(F)(F)F)nc3n2n1 [Example 68, 2-(2-Cyano-5-oxo-8-(trifluoromethyl)pyrazolo[1,5-a]pyrido[3,2-e]pyrimidin-4(5H)-yl)-N-(5-fluoropyridin-2-yl)acetamide] |  | 106.4% | 2.75 h | 91.6% | 0.11 | 0.162 | < 4.00 | ∞
O=C(Cn1c(=O)c2ccc(C(F)(F)F)nc2n2nccc12)Nc1ccc(F)cn1 [Example 78, N-(5-Fluoropyridin-2-yl)-2-(5-oxo-8-(trifluoromethyl)pyrazolo[1,5-a]pyrido[3,2-e]pyrimidin-4(5H)-yl)acetamide] | 32.7 h | 98.9% | 568 h | 99.3% | 0.061 | 0.084 | < 4.00 | 
N#Cc1cnn2c3nc(C(F)(F)F)ccc3c(=O)n(CC(=O)Nc3ccc(F)cn3)c12 [Example 80, 2-(3-Cyano-5-oxo-8-(trifluoromethyl)pyrazolo[1,5-a]pyrido[3,2-e]pyrimidin-4(5H)-yl)-N-(5-fluoropyridin-2-yl)acetamide] |  |  |  |  | 0.234 | 0.256 |  | 

Reference: US20230118497A1, “PYRAZOLE-CONTAINING POLYCYCLIC DERIVATIVE INHIBITOR, PREPARATION METHOD THEREFOR AND APPLICATION THEREOF” (Shanghai Hansoh Biomedical Co., Ltd., priority 2019, published 2023)
